# Source: publication PMC8786778 (Pharmacological reports : PR, 2021)
# Where two headings read alike, the source gives them in different places.
# Experiments:
# Type in all cases: cell-based
# HL-60 cells [1] = experiment: Cell cycle analysis with NIM-DAPI; conditions: HL-60, 72 h
# Protocol: Controls included were a vehicle (0.1% v/v DMSO), positive (1 mM H2O2), and negative (untreated cells) control. Subsequently, cells were collected in flow cytometry tubes and centrifuged at 262g for 5 min. Then, the supernatant was removed, and the cell pellet was re-suspended in a mixture of 100 μl of PBS and 200 μl of NIM-DAPI. Samples were immediately read and analyzed through flow cytometry (Gallios & Kaluza Analysis Software; Beckman Coulter). Approximately 10,000 events were acquired per sample. Data are represented as plots that display peaks (Fig. 6e) which represent fragments of DNA (Sub-G0/1 phase), cells before they replicate DNA (G0/1 phase), active replication of DNA (S phase), and post-replicative stage while entering mitosis (G2M phase) [23].
# HT-29 = experiment: Differential nuclear staining (DNS) cytotoxicity assay; conditions: Homo sapiens, HT-29, 48 h
# Description: (§1) All cell lines were obtained commercially from ATCC (American Type Culture Collection). Several cancer and non-cancerous cell lines were used for this analysis. […] Solid tumor cancer cell lines included MDA-MB-231 (Adenocarcinoma; HTB-26) cultured in DMEM medium, HT-29 (Colorectal Adenocarcinoma; HTB-38) cultured in McCoy’s 5A medium, and COLO 205 (Colorectal Adenocarcinoma; CCL-222) cultured in RPMI-1640 medium. Non-cancerous cell lines included Hs27 (No disease, foreskin; CRL-1634) cultured in DMEM medium and MCF-10A (Fibrocystic Disease; CRL-10317) cultured in DMEM/F12 medium supplemented with 20 ng/ml epidermal growth factor, 0.5 μg/ml hydrocortisone, and 10 μg/ml insulin. Additionally, all media used for cell culture was supplemented with 10% heat-inactivated fetal bovine serum (FBS), and a mixture of 25 μg/ml amphotericin B, 1,000 U/ml penicillin, and 1,000 μg/ml streptomycin. […] All cell lines were grown in an incubator supplemented with 5% CO2 at 37 °C.
# (§2) Cytotoxic activity was evaluated through the DNS assay [17, 18]. This assay involves labeling live and dead cells with two nucleic acid intercalators, Hoechst 33342 and propidium iodide (PI). Hoechst 33342 stains all cells (healthy and dead), but PI stains only dead or dying cells with a compromised cell membrane [17, 18]. For the experiment, each cell line was plated at a density of 10,000 cells per well (96-well plate) in 100 μl media and placed in the incubator overnight under cell culture conditions. Cells were then treated with varying concentrations of the compound of interest for 48 h. Two hours before incubation elapsed, 10 μl of a dye mixture consisting of phosphate-buffered saline (PBS), Hoechst 33342 (1 μg/ml final; Invitrogen, H1399), and PI (1 μg/ml final; Invitrogen, P1304MP) was added to each well. […] For quantitative analysis, images were segmented through the IN Cell Analyzer Workstation 3.2 software (GE Healthcare). […] Each compound concentration and each control were assessed in triplicate. […] SCI was calculated using the following equation: CC50 of the non-cancer cell line/CC50 of the cancer cell line [20].
# [2] = as above; conditions: human, Hs27 cells (non-cancerous) versus HT-29 cells (cancer); CC50 Hs27 / CC50 HT-29; read-out: SCI (Selective Cytotoxicity Index)
# Description: as §1, §2
# MYC in HL-60 cells = experiment: RT-qPCR gene expression; conditions: HL-60, 6 h, P3 […], P4 4 μM, P5 4 μM, normalised to ACTB, 2^−ΔΔCt
# Protocol: (§3) After the incubation period elapsed, cell pellets were washed by centrifuging at 262g for 5 min and re-suspending in 1 ml of PBS. Dry cell pellets were used for RNA extraction. RNA was extracted immediately according to the manufacturer’s instructions of the RNeasy Mini Kit (Qiagen; 74104). A QIAshredder was used to lyse the cells, and the optional DNase I digestion was also accomplished. Three biological replicates were used for each treatment. RNA was stored at −80 °C overnight, then the RNA was used to synthesize cDNA using the RT^2 HT First Strand Kit (Qiagen; 330,411). The amount of RNA used per sample was 500 ng, which was quantified using a NanoDrop ND-1000 system (ThermoFisher Scientific). RNA was diluted using RNase-free water to obtain the desired concentration (500 ng) in 9 μl. As per the manufacturer’s protocol, we incubated 9 μl of the sample with 6 μl GE2 (gDNA elimination buffer) for 5 min at 37 °C, then we added 6 μl BC4 Reverse Transcriptase Mix and incubated for 15 min at 42 °C, 5 min at 95 °C and, finally, a 4 °C hold. […] For data analysis, gene expression levels were normalized to the housekeeping gene (ACTB) and quantified using the comparative Ct method (2^−ΔΔCt). Fold change differences were calculated by comparing gene expression levels of compound treatment versus vehicle control.
# [3] = test system: caspase-3 activation in HL-60 cells; experiment: Caspase-3 assay (NucView 488); conditions: HL-60, 8 h; concentration not given
# [4] = Differential nuclear staining (DNS) cytotoxicity assay; conditions: human; CC50 MCF-10A / CC50 MDA-MB-231; read-out: SCI (Selective Cytotoxicity Index)
# Description: as §1, §2
# MDA-MB-231 = experiment: as above; conditions: Homo sapiens, MDA-MB-231, 48 h
# Description: as §1, §2
# [5] = as above; conditions: human, MCF-10A non-cancerous cells
# Description: (§4) All cell lines were obtained commercially from ATCC (American Type Culture Collection). Several cancer and non-cancerous cell lines were used for this analysis. […] Solid tumor cancer cell lines included MDA-MB-231 (Adenocarcinoma; HTB-26) cultured in DMEM medium, HT-29 (Colorectal Adenocarcinoma; HTB-38) cultured in McCoy’s 5A medium, and COLO 205 (Colorectal Adenocarcinoma; CCL-222) cultured in RPMI-1640 medium. Non-cancerous cell lines included Hs27 (No disease, foreskin; CRL-1634) cultured in DMEM medium and MCF-10A (Fibrocystic Disease; CRL-10317) cultured in DMEM/F12 medium supplemented with 20 ng/ml epidermal growth factor, 0.5 μg/ml hydrocortisone, and 10 μg/ml insulin. Additionally, all media used for cell culture was supplemented with 10% heat-inactivated fetal bovine serum (FBS), and a mixture of 25 μg/ml amphotericin B, 1,000 U/ml penicillin, and 1,000 μg/ml streptomycin. The HL-60 cell line was supplemented with 20% FBS and the same antibiotic mixture described. All cell lines were grown in an incubator supplemented with 5% CO2 at 37 °C.
# Cytotoxic activity was evaluated through the DNS assay [17, 18]. […] For quantitative analysis, images were segmented through the IN Cell Analyzer Workstation 3.2 software (GE Healthcare). […] Each compound concentration and each control were assessed in triplicate.
# [6] = test system: nine tumorigenic cell lines; experiment: DNS assay, summary over the cancer cell line panel; conditions: for CC50: 48 h, read-out: average CC50 towards the nine tumorigenic cell lines
# Protocol: Several cancer and non-cancerous cell lines were used for this analysis. […] Additionally, all media used for cell culture was supplemented with 10% heat-inactivated fetal bovine serum (FBS), and a mixture of 25 μg/ml amphotericin B, 1,000 U/ml penicillin, and 1,000 μg/ml streptomycin. […] All cell lines were grown in an incubator supplemented with 5% CO2 at 37 °C.
# Cytotoxic activity was evaluated through the DNS assay [17, 18]. […] For the experiment, each cell line was plated at a density of 10,000 cells per well (96-well plate) in 100 μl media and placed in the incubator overnight under cell culture conditions. Cells were then treated with varying concentrations of the compound of interest for 48 h. […] The IN Cell 2000 analyzer, a high-content analyzer (HCA), was used to image the plates (GE Healthcare). For quantitative analysis, images were segmented through the IN Cell Analyzer Workstation 3.2 software (GE Healthcare). […] Each compound concentration and each control were assessed in triplicate.
# HL-60 cells [7] = experiment: Mitochondrial membrane potential (ΔΨm) polychromatic assay (JC-1); conditions: HL-60, 5 h, 4 μM
# Protocol: The cationic JC-1 (5′,6,6′-tetrachloro-1,1′,3,3′-tetraethylben zimidazolylcarbocyanine iodide) dye can be used to monitor mitochondrial membrane potential (Invitrogen; M34152). A red signal (JC-1 aggregates) indicates an intact polarized mitochondrial membrane, while a green signal (JC-1 monomers) indicates a depolarized mitochondrial membrane. […] A vehicle, positive, and negative control (as previously described) were included as well. Following incubation, cells were collected and stained per the manufacturer’s instructions with a final concentration of 2 μM JC-1 dye. Samples were then examined utilizing flow cytometry (Gallios; Beckman Coulter). Analysis of the subsequent data was completed using Kaluza software (Kaluza Analysis Software; Beckman Coulter).
# HL-60 cells [8] = experiment: Reactive oxygen species (ROS) assay (carboxy-H2DCFDA); conditions: HL-60, 18 h
# Protocol: Reactive oxygen species (ROS) generation can be quantified using the 6-carboxy-2',7'-dichlorodihydrofluorescein diacetate (carboxy-H2DCFDA) dye (Invitrogen; Molecular Probes, C400) [19, 22]. This non-fluorescent dye shifts to a green fluorescent form as oxidation, induced by ROS, occurs within the cell. Therefore, a green fluorescent signal, corresponding to the oxidized form of carboxy-H2DCFDA, indicates ROS generation. Cells (HL-60) were plated overnight at a density of 100,000 cells in 1 ml. […] Samples were collected, centrifuged at 262g for 5 min, and re-suspended in 1 ml PBS to remove the complete medium. Then, cells were loaded with a final concentration of 10 μM carboxy-H2DCFDA dye for 45 min at 37 °C. Following incubation with dye, cells were centrifuged at 262g for 5 min and re-suspended in 500 μl PBS. Then, samples were processed using flow cytometry (Gallios; Beckman Coulter). Data analysis was completed with the Kaluza software (Kaluza Analysis Software; Beckman Coulter). Controls used were the same as mentioned before (0.1% v/v DMSO, 1 mM H2O2, and untreated cells) with an additional unstained (not loaded with dye) control to observe the normal population of cells.
# PMAIP1 in HL-60 cells = experiment: RT-qPCR gene expression; conditions: HL-60, 6 h, P3 […], P4 4 μM, P5 4 μM, normalised to ACTB, 2^−ΔΔCt
# Protocol: as §3
# ATF3 in HL-60 cells = experiment: RT-qPCR gene expression; conditions: HL-60, 6 h, P3 […], P4 4 μM, P5 4 μM, normalised to ACTB, 2^−ΔΔCt
# Protocol: as §3
# [9] = Differential nuclear staining (DNS) cytotoxicity assay; conditions: human, Hs27 cells (non-cancerous) versus KCL22 cells (cancer); CC50 Hs27 / CC50 KCL22; read-out: SCI (Selective Cytotoxicity Index)
# Description: as §4
# (§5) Cytotoxic activity was evaluated through the DNS assay [17, 18]. This assay involves labeling live and dead cells with two nucleic acid intercalators, Hoechst 33342 and propidium iodide (PI). Hoechst 33342 stains all cells (healthy and dead), but PI stains only dead or dying cells with a compromised cell membrane [17, 18]. For the experiment, each cell line was plated at a density of 10,000 cells per well (96-well plate) in 100 μl media and placed in the incubator overnight under cell culture conditions. Cells were then treated with varying concentrations of the compound of interest for 48 h. […] For quantitative analysis, images were segmented through the IN Cell Analyzer Workstation 3.2 software (GE Healthcare). […] Each compound concentration and each control were assessed in triplicate. […] SCI was calculated using the following equation: CC50 of the non-cancer cell line/CC50 of the cancer cell line [20].
# KCL22 = experiment: as above; conditions: Homo sapiens
# Description: as §4, §5
# HMOX-1 in HL-60 cells = experiment: RT-qPCR gene expression; conditions: HL-60, 6 h, P3 […], P4 4 μM, P5 4 μM, normalised to ACTB, 2^−ΔΔCt, two independent experiments
# Protocol: as §3
# [10] = Differential nuclear staining (DNS) cytotoxicity assay; conditions: human, Hs27 cells (non-cancerous) versus HL-60 cells (cancer); CC50 Hs27 / CC50 HL-60; read-out: SCI (Selective Cytotoxicity Index)
# Protocol: (§6) All cell lines were obtained commercially from ATCC (American Type Culture Collection). Several cancer and non-cancerous cell lines were used for this analysis. […] Non-cancerous cell lines included Hs27 (No disease, foreskin; CRL-1634) cultured in DMEM medium and MCF-10A (Fibrocystic Disease; CRL-10317) cultured in DMEM/F12 medium supplemented with 20 ng/ml epidermal growth factor, 0.5 μg/ml hydrocortisone, and 10 μg/ml insulin. Additionally, all media used for cell culture was supplemented with 10% heat-inactivated fetal bovine serum (FBS), and a mixture of 25 μg/ml amphotericin B, 1,000 U/ml penicillin, and 1,000 μg/ml streptomycin. The HL-60 cell line was supplemented with 20% FBS and the same antibiotic mixture described. All cell lines were grown in an incubator supplemented with 5% CO2 at 37 °C.
# (§7) Cytotoxic activity was evaluated through the DNS assay [17, 18]. This assay involves labeling live and dead cells with two nucleic acid intercalators, Hoechst 33342 and propidium iodide (PI). Hoechst 33342 stains all cells (healthy and dead), but PI stains only dead or dying cells with a compromised cell membrane [17, 18]. For the experiment, each cell line was plated at a density of 10,000 cells per well (96-well plate) in 100 μl media and placed in the incubator overnight under cell culture conditions. Cells were then treated with varying concentrations of the compound of interest for 48 h. Two hours before incubation elapsed, 10 μl of a dye mixture consisting of phosphate-buffered saline (PBS), Hoechst 33342 (1 μg/ml final; Invitrogen, H1399), and PI (1 μg/ml final; Invitrogen, P1304MP) was added to each well. The IN Cell 2000 analyzer, a high-content analyzer (HCA), was used to image the plates (GE Healthcare). For quantitative analysis, images were segmented through the IN Cell Analyzer Workstation 3.2 software (GE Healthcare). […] Each compound concentration and each control were assessed in triplicate.
# (§8) For the experiments conducted, the concentrations used correspond to either CC50 or CC50 × 2 in the specified cell line. […] Therefore, we used a CC10 and a CC30 concentration.
# HL-60 = experiment: as above; conditions: for CC50: Homo sapiens
# Protocol: as §6, §7, §8
# [11] = as above; conditions: human, Hs27 cells (non-cancerous) versus Ramos cells (cancer); CC50 Hs27 / CC50 Ramos; read-out: SCI (Selective Cytotoxicity Index)
# Description: as §1, §2
# Ramos = experiment: as above; conditions: Homo sapiens, Ramos, 48 h
# Description: as §1, §2
# [12] = as above; conditions: human, Hs27 cells (non-cancerous) versus K562 cells (cancer); CC50 Hs27 / CC50 K562; read-out: SCI (Selective Cytotoxicity Index)
# Description: as §4, §5
# K562 = experiment: as above; conditions: Homo sapiens, K562, 48 h
# Description: as §4, §5
# [13] = as above; conditions: human, Hs27 non-cancerous cells
# Description: (§9) All cell lines were obtained commercially from ATCC (American Type Culture Collection). Several cancer and non-cancerous cell lines were used for this analysis. […] Solid tumor cancer cell lines included MDA-MB-231 (Adenocarcinoma; HTB-26) cultured in DMEM medium, HT-29 (Colorectal Adenocarcinoma; HTB-38) cultured in McCoy’s 5A medium, and COLO 205 (Colorectal Adenocarcinoma; CCL-222) cultured in RPMI-1640 medium. Non-cancerous cell lines included Hs27 (No disease, foreskin; CRL-1634) cultured in DMEM medium and MCF-10A (Fibrocystic Disease; CRL-10317) cultured in DMEM/F12 medium supplemented with 20 ng/ml epidermal growth factor, 0.5 μg/ml hydrocortisone, and 10 μg/ml insulin. Additionally, all media used for cell culture was supplemented with 10% heat-inactivated fetal bovine serum (FBS), and a mixture of 25 μg/ml amphotericin B, 1,000 U/ml penicillin, and 1,000 μg/ml streptomycin. The HL-60 cell line was supplemented with 20% FBS and the same antibiotic mixture described. […]
# (§10) Cytotoxic activity was evaluated through the DNS assay [17, 18]. […] For quantitative analysis, images were segmented through the IN Cell Analyzer Workstation 3.2 software (GE Healthcare). […] Each compound concentration and each control were assessed in triplicate. […] SCI was calculated using the following equation: CC50 of the non-cancer cell line/CC50 of the cancer cell line [20].
# [14] = as above; conditions: human, Hs27 cells (non-cancerous) versus CCRF-CEM cells (cancer); CC50 Hs27 / CC50 CCRF-CEM; read-out: SCI (Selective Cytotoxicity Index)
# Description: as §1, §2
# CCRF-CEM = experiment: as above; conditions: Homo sapiens, CCRF-CEM, 48 h
# Description: as §1, §2
# HL-60 cells [15] = experiment: Annexin V-FITC assay (phosphatidylserine externalization); conditions: HL-60, 24 h, CC50 concentration (P3 […], P4 2 μM, P5 2 μM)
# Protocol: The annexin V-FITC assay was used to evaluate the induction of apoptosis (Beckman Coulter; IM3546) [21]. HL-60 cells were seeded at a density of 100,000 cells in 1 ml complete medium. Cells were treated with the three compounds of interest for 24 h. […] Controls used were a vehicle control (0.1% v/v DMSO), an apoptosis-inducing positive control (1 mM H2O2), and an untreated cell negative control. Following treatment, cells were collected and stained with both PI and annexin V-FITC according to the manufacturer’s instructions (Beckman Coulter; IM3546). Samples were immediately read by flow cytometry (Gallios; Beckman Coulter). Data analysis was accomplished with Kaluza software (Kaluza Analysis Software; Beckman Coulter).
# [16] = Differential nuclear staining (DNS) cytotoxicity assay; conditions: human, Hs27 cells (non-cancerous) versus COLO 205 cells (cancer); CC50 Hs27 / CC50 COLO 205; read-out: SCI (Selective Cytotoxicity Index)
# Description: as §1, §2
# COLO 205 = experiment: as above; conditions: Homo sapiens, COLO 205, 48 h
# Description: as §1, §2
# CHAC1 in HL-60 cells = experiment: RT-qPCR gene expression; conditions: HL-60, 6 h, P3 […], P4 4 μM, P5 4 μM, normalised to ACTB, 2^−ΔΔCt
# Protocol: as §3
# [17] = Differential nuclear staining (DNS) cytotoxicity assay; conditions: human, Hs27 cells (non-cancerous) versus Jurkat cells (cancer); CC50 Hs27 / CC50 Jurkat; read-out: SCI (Selective Cytotoxicity Index)
# Description: as §4, §5
# Jurkat = experiment: as above; conditions: Homo sapiens, Jurkat, 48 h
# Description: as §4, §5
# [18] = DNS assay, summary over the non-cancerous cell lines; conditions: human, Hs27 and MCF-10A non-cancerous cells, mean of two non-cancerous cell lines, read-out: average CC50 towards Hs27 and MCF-10A
# Description: as §9, §10
# [19] = HL-60, concentration used for 72 h cell cycle analysis
structure (smiles),measurement,setting,value
O=C1/C(=C/c2ccc(O)c(CN3CCOCC3)c2)CNC/C1=C\c1ccc(O)c(CN2CCOCC2)c1 [P5],increase in the percentage of cells arrested at the G2/M phase versus DMSO,HL-60 cells [1]; 0.4 μM,~ 9%
same,change in the percentage of cells in the S phase compared to DMSO,HL-60 cells [1]; printed as double the CC50 concentration,significant decrease
same,CC50,"HT-29; DNS assay, read-out: CC50",1930 nM
same,selectivity ratio at 48 h,[2],2.85
same,fold-change difference of MYC expression versus vehicle,MYC in HL-60 cells,−4.15
same,"cells with active caspase-3, as compared to DMSO",[3],~ 49%
same,selectivity ratio at 48 h,[4],1.26
same,CC50,"MDA-MB-231; DNS assay, read-out: CC50",1740 nM
same,CC50 at 48 h,[5],2180 nM
same,CC50,"[6]; DNS assay, mean over nine cell lines",1520 nM
same,times more potent than melphalan,"[6]; ratio of average CC50 values, nine tumorigenic cell lines",11.7
same,increase in the cell population with a depolarized mitochondrial membrane in comparison to DMSO,HL-60 cells [7],~ 10%
same,increase of cells positive for ROS production compared to DMSO,"HL-60 cells [8]; P3 […], P4 2 μM, P5 2 μM",~ 38%
same,increase of cells positive for ROS production compared to DMSO,"HL-60 cells [8]; twice the concentration (P3 […], P4 4 μM, P5 4 μM)",~ 65%
same,fold-change difference of PMAIP1 expression versus vehicle,PMAIP1 in HL-60 cells,79.50
same,fold-change difference of ATF3 expression versus vehicle,ATF3 in HL-60 cells,204.56
same,selectivity ratio at 48 h,[9],3.49
same,CC50,"KCL22; KCL-22, KCL22, 48 h, DNS assay, read-out: CC50",1570 nM
same,fold-change difference of HMOX-1 expression versus vehicle,HMOX-1 in HL-60 cells,2464.89
same,selectivity ratio at 48 h,[10],7.47
same,CC10,HL-60; [19],400 nM
same,CC30,HL-60; [19],1200 nM
same,CC50,"HL-60; HL-60, 48 h, DNS assay, read-out: CC50",740 nM
same,CC50,"HL-60; HL-60, value used to set treatment concentrations, read-out: CC50 in HL-60 (concentrations for cell death induction)",2000 nM
same,selectivity ratio at 48 h,[11],5.19
same,CC50,"Ramos; DNS assay, read-out: CC50",1060 nM
same,selectivity ratio at 48 h,[12],1.29
same,CC50,"K562; DNS assay, read-out: CC50",4250 nM
same,CC50 at 48 h,[13],5500 nM
same,selectivity ratio at 48 h,[14],8.42
same,CC50,"CCRF-CEM; DNS assay, read-out: CC50",650 nM
same,increase of Annexin V-FITC-positive cells in comparison to DMSO,HL-60 cells [15],~ 30%
same,selectivity ratio at 48 h,[16],6.87
same,CC50,"COLO 205; DNS assay, read-out: CC50",800 nM
same,fold-change difference of CHAC1 expression versus vehicle,CHAC1 in HL-60 cells,106.96
same,selectivity ratio at 48 h,[17],6.05
same,CC50,"Jurkat; DNS assay, read-out: CC50",910 nM
same,CC50 at 48 h,[18],3840 nM
"N[C@@H](Cc1ccc(N(CCCl)CCCl)cc1)C(=O)O [Melphalan, reference compound]",CC50,HT-29,21100 nM
same,CC50,MDA-MB-231,9230 nM
same,CC50,[6],17800 nM
same,CC50,"KCL22; KCL-22, 48 h",81300 nM
same,CC50,"HL-60; HL-60, 48 h",1570 nM
same,CC50,Ramos,2050 nM
same,CC50,K562,19600 nM
same,CC50,CCRF-CEM,3170 nM
same,CC50,COLO 205,20400 nM
same,CC50,Jurkat,1910 nM
